Reference: the supplement of paper PMC10307832

Assays:
Test in all cases: relative viability (nuclei count vs DMSO), 5 days (fraction); higher = more cells survive
BEN = system: BEN
In short: (§1)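 Relative viability equals treated-well nuclei counts divided by vehicle-well nuclei counts. Counts came from 4× images of lung cancer cell lines grown in 1536-well plates for 5 days after pin-tool dosing on the day after seeding. Dosing used one drug alone or a fixed anchor-drug dose plus five library-drug doses (not always all listed) in √10 steps, and values are medians of duplicate plates.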

NCI-H650 = system: NCI-H650
In short: as §1

NCI-H441 = system: NCI-H441
In short: as §1

NCI-H2023 = system: NCI-H2023
In short: as §1

NCI-H520 = system: NCI-H520
In short: as §1

NCI-H1650 = system: NCI-H1650
In short: as §1

201T = system: 201T
In short: as §1

ABC-1 = system: ABC-1
In short: as §1

NCI-H1915 = system: NCI-H1915
In short: as §1

NCI-H661 = system: NCI-H661
In short: as §1

NCI-H596 = system: NCI-H596
In short: as §1

A-427 = system: A-427
In short: as §1

CAL-12T = system: CAL-12T
In short: as §1

NCI-H1651 = system: NCI-H1651
In short: as §1

NCI-H1944 = system: NCI-H1944
In short: as §1

NCI-H460 = system: NCI-H460
In short: as §1

PC-3 [JPC-3] = system: PC-3 [JPC-3]
In short: as §1

NCI-H727 = system: NCI-H727
In short: as §1

LC-2-ad = system: LC-2-ad
In short: as §1

LCLC-97TM1 = system: LCLC-97TM1
In short: as §1

NCI-H2087 = system: NCI-H2087
In short: as §1

H3255 = system: H3255
In short: as §1

Q: With Cc1sc2c(c1C)C(c1ccc(Cl)cc1)=N[C@@H](CC(=O)OC(C)(C)C)c1nnc(C)n1-2 [JQ1] + O=C(c1cc(Cc2n[nH]c(=O)c3ccccc23)ccc1F)N1CCN(C(=O)C2CC2)CC1 [Olaparib] (partner 8 µM) as the compound, how does the relative viability (BEN; first compound 0.04 µM) read?
A: 1.02

Q: What about the relative viability (BEN; first compound 0.1265 µM) of the same compound?
A: 0.76

Q: And the relative viability (BEN; first compound 0.4 µM)?
A: 0.671

Q: What about the relative viability (BEN; first compound 1.265 µM) of the same compound?
A: 0.346

Q: And the relative viability (BEN; first compound 4 µM)?
A: 0.243

Q: What about the relative viability (NCI-H650; first compound 0.04 µM) of the same compound?
A: 0.363

Q: And the relative viability (NCI-H650; first compound 0.1265 µM)?
A: 0.306

Q: What about the relative viability (NCI-H650; first compound 0.4 µM) of the same compound?
A: 0.273

Q: And the relative viability (NCI-H650; first compound 1.265 µM)?
A: 0.151

Q: And the relative viability (NCI-H650; first compound 4 µM)?
A: 0.146

Q: And the relative viability (NCI-H441; first compound 0.04 µM)?
A: 0.612

Q: What about the relative viability (NCI-H441; first compound 0.1265 µM) of the same compound?
A: 0.523

Q: And the relative viability (NCI-H441; first compound 0.4 µM)?
A: 0.256

Q: And the relative viability (NCI-H441; first compound 1.265 µM)?
A: 0.17

Q: And the relative viability (NCI-H441; first compound 4 µM)?
A: 0.17

Q: What about the relative viability (NCI-H2023; first compound 0.04 µM) of the same compound?
A: 0.442

Q: And the relative viability (NCI-H2023; first compound 0.1265 µM)?
A: 0.342

Q: What about the relative viability (NCI-H2023; first compound 0.4 µM) of the same compound?
A: 0.207

Q: What about the relative viability (NCI-H2023; first compound 1.265 µM) of the same compound?
A: 0.104

Q: What about the relative viability (NCI-H2023; first compound 4 µM) of the same compound?
A: 0.0832

Q: What about the relative viability (NCI-H520; first compound 0.04 µM) of the same compound?
A: 0.285

Q: And the relative viability (NCI-H520; first compound 0.1265 µM)?
A: 0.298

Q: What about the relative viability (NCI-H520; first compound 0.4 µM) of the same compound?
A: 0.251

Q: And the relative viability (NCI-H520; first compound 1.265 µM)?
A: 0.165

Q: And the relative viability (NCI-H520; first compound 4 µM)?
A: 0.156

Q: What about the relative viability (NCI-H1650; first compound 0.04 µM) of the same compound?
A: 0.725

Q: What about the relative viability (NCI-H1650; first compound 0.1265 µM) of the same compound?
A: 0.669

Q: What about the relative viability (NCI-H1650; first compound 0.4 µM) of the same compound?
A: 0.476

Q: And the relative viability (NCI-H1650; first compound 1.265 µM)?
A: 0.21

Q: What about the relative viability (NCI-H1650; first compound 4 µM) of the same compound?
A: 0.149

Q: And the relative viability (201T; first compound 0.04 µM)?
A: 0.871

Q: And the relative viability (201T; first compound 0.4 µM)?
A: 0.613

Q: And the relative viability (201T; first compound 1.265 µM)?
A: 0.498

Q: And the relative viability (201T; first compound 4 µM)?
A: 0.347

Q: And the relative viability (ABC-1; first compound 0.04 µM)?
A: 0.772

Q: And the relative viability (ABC-1; first compound 0.1265 µM)?
A: 0.575

Q: What about the relative viability (ABC-1; first compound 0.4 µM) of the same compound?
A: 0.744

Q: What about the relative viability (ABC-1; first compound 1.265 µM) of the same compound?
A: 0.748

Q: What about the relative viability (ABC-1; first compound 4 µM) of the same compound?
A: 0.385

Q: What about the relative viability (NCI-H1915; first compound 0.04 µM) of the same compound?
A: 0.23

Q: What about the relative viability (NCI-H1915; first compound 0.4 µM) of the same compound?
A: 0.184

Q: What about the relative viability (NCI-H1915; first compound 1.265 µM) of the same compound?
A: 0.138

Q: And the relative viability (NCI-H1915; first compound 4 µM)?
A: 0.107

Q: What about the relative viability (NCI-H661; first compound 0.04 µM) of the same compound?
A: 0.75

Q: What about the relative viability (NCI-H661; first compound 0.1265 µM) of the same compound?
A: 0.709

Q: And the relative viability (NCI-H661; first compound 0.4 µM)?
A: 0.781

Q: What about the relative viability (NCI-H661; first compound 1.265 µM) of the same compound?
A: 0.536

Q: And the relative viability (NCI-H661; first compound 4 µM)?
A: 0.427

Q: And the relative viability (NCI-H596; first compound 0.04 µM)?
A: 0.618

Q: What about the relative viability (NCI-H596; first compound 0.1265 µM) of the same compound?
A: 0.499

Q: And the relative viability (NCI-H596; first compound 0.4 µM)?
A: 0.367

Q: What about the relative viability (NCI-H596; first compound 1.265 µM) of the same compound?
A: 0.326

Q: What about the relative viability (NCI-H596; first compound 4 µM) of the same compound?
A: 0.321

Q: What about the relative viability (A-427; first compound 0.04 µM) of the same compound?
A: 0.693

Q: And the relative viability (A-427; first compound 0.1265 µM)?
A: 0.72

Q: What about the relative viability (A-427; first compound 0.4 µM) of the same compound?
A: 0.83

Q: And the relative viability (A-427; first compound 1.265 µM)?
A: 0.709

Q: What about the relative viability (A-427; first compound 4 µM) of the same compound?
A: 0.418

Q: And the relative viability (CAL-12T; first compound 0.04 µM)?
A: 0.715

Q: And the relative viability (CAL-12T; first compound 0.1265 µM)?
A: 0.823

Q: What about the relative viability (CAL-12T; first compound 0.4 µM) of the same compound?
A: 0.595

Q: What about the relative viability (CAL-12T; first compound 1.265 µM) of the same compound?
A: 0.34

Q: What about the relative viability (CAL-12T; first compound 4 µM) of the same compound?
A: 0.272

Q: What about the relative viability (NCI-H1651; first compound 0.04 µM) of the same compound?
A: 0.175

Q: What about the relative viability (NCI-H1651; first compound 0.1265 µM) of the same compound?
A: 0.173

Q: And the relative viability (NCI-H1651; first compound 0.4 µM)?
A: 0.151

Q: What about the relative viability (NCI-H1651; first compound 1.265 µM) of the same compound?
A: 0.132

Q: And the relative viability (NCI-H1651; first compound 4 µM)?
A: 0.136

Q: What about the relative viability (NCI-H1944; first compound 0.04 µM) of the same compound?
A: 0.405

Q: What about the relative viability (NCI-H1944; first compound 0.1265 µM) of the same compound?
A: 0.391

Q: What about the relative viability (NCI-H1944; first compound 0.4 µM) of the same compound?
A: 0.314

Q: And the relative viability (NCI-H1944; first compound 1.265 µM)?
A: 0.232

Q: And the relative viability (NCI-H1944; first compound 4 µM)?
A: 0.235

Q: What about the relative viability (NCI-H460; first compound 0.04 µM) of the same compound?
A: 0.43

Q: And the relative viability (NCI-H460; first compound 0.1265 µM)?
A: 0.336

Q: What about the relative viability (NCI-H460; first compound 0.4 µM) of the same compound?
A: 0.179

Q: What about the relative viability (NCI-H460; first compound 1.265 µM) of the same compound?
A: 0.124

Q: What about the relative viability (NCI-H460; first compound 4 µM) of the same compound?
A: 0.0676

Q: What about the relative viability (PC-3 [JPC-3]; first compound 0.04 µM) of the same compound?
A: 1.1

Q: What about the relative viability (PC-3 [JPC-3]; first compound 0.1265 µM) of the same compound?
A: 0.992

Q: And the relative viability (PC-3 [JPC-3]; first compound 0.4 µM)?
A: 1.05

Q: What about the relative viability (PC-3 [JPC-3]; first compound 1.265 µM) of the same compound?
A: 0.66

Q: And the relative viability (PC-3 [JPC-3]; first compound 4 µM)?
A: 0.385

Q: What about the relative viability (NCI-H727; first compound 0.04 µM) of the same compound?
A: 0.668

Q: And the relative viability (NCI-H727; first compound 0.1265 µM)?
A: 0.759

Q: And the relative viability (NCI-H727; first compound 0.4 µM)?
A: 0.599

Q: What about the relative viability (NCI-H727; first compound 1.265 µM) of the same compound?
A: 0.555

Q: And the relative viability (NCI-H727; first compound 4 µM)?
A: 0.497

Q: And the relative viability (LC-2-ad; first compound 0.04 µM)?
A: 0.701

Q: What about the relative viability (LC-2-ad; first compound 0.1265 µM) of the same compound?
A: 0.599

Q: What about the relative viability (LC-2-ad; first compound 0.4 µM) of the same compound?
A: 0.332

Q: And the relative viability (LC-2-ad; first compound 1.265 µM)?
A: 0.256

Q: And the relative viability (LC-2-ad; first compound 4 µM)?
A: 0.256

Q: And the relative viability (LCLC-97TM1; first compound 0.04 µM)?
A: 0.354

Q: And the relative viability (LCLC-97TM1; first compound 0.1265 µM)?
A: 0.297

Q: What about the relative viability (LCLC-97TM1; first compound 0.4 µM) of the same compound?
A: 0.297

Q: And the relative viability (LCLC-97TM1; first compound 1.265 µM)?
A: 0.149

Q: What about the relative viability (LCLC-97TM1; first compound 4 µM) of the same compound?
A: 0.108

Q: And the relative viability (NCI-H2087; first compound 0.04 µM)?
A: 0.503

Q: And the relative viability (NCI-H2087; first compound 0.1265 µM)?
A: 0.509

Q: What about the relative viability (NCI-H2087; first compound 0.4 µM) of the same compound?
A: 0.646

Q: What about the relative viability (NCI-H2087; first compound 1.265 µM) of the same compound?
A: 0.381

Q: And the relative viability (NCI-H2087; first compound 4 µM)?
A: 0.297

Q: What about the relative viability (H3255; first compound 0.04 µM) of the same compound?
A: 0.528

Q: What about the relative viability (H3255; first compound 0.1265 µM) of the same compound?
A: 0.492

Q: What about the relative viability (H3255; first compound 0.4 µM) of the same compound?
A: 0.439

Q: And the relative viability (H3255; first compound 1.265 µM)?
A: 0.305

Q: What about the relative viability (H3255; first compound 4 µM) of the same compound?
A: 0.264
